Results taken from paper PMC11374673, “Discovery of isoquinoline sulfonamides as allosteric gyrase inhibitors with activity against fluoroquinolone-resistant bacteria” (Nature Chemistry, 2024).
Values joined by “and” are separate entries in the source; they are usually repeats but may differ in a detail not shown here. Equal entries are not always repeated.

Columns and labels:
E. coli W3110 [1] = test: MIC by broth microdilution; type: cell-based, Escherichia coli
Method in brief: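 Exponential-phase cultures (OD600 0.5, 37 °C aerobic), diluted 100-fold in CAMHB, were added to twofold compound dilution series. Keio strains grown with 50 µg ml^−1 kanamycin. Plates incubated overnight at 37 °C, shaking at 600 r.p.m.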

[2] = tested on: 60-resistant (60-r) isolates of E. coli W3110; test: microbe, parasite or virus in culture; type: cell-based, Escherichia coli
Description: MIC was determined by broth microdilution. Single-colony cultures were grown to exponential phase (OD600 of 0.5) aerobically at 37 °C. In case of strains from the Keio collection, 50 µg ml^−1 kanamycin was supplemented to the media to ascertain a homogeneous population. The bacterial suspensions were diluted 100-fold in CAMHB and 50 µl was added to a twofold serial dilution series of test compounds (50 µl per well) in polypropylene 96-well microtitre plates to reach a volume of 100 µl. The plates were sealed with breathable membranes and incubated overnight at 37 °C with constant shaking (600 r.p.m.). The MIC was determined as the lowest concentration at which no visible bacterial growth was observed as compared with the inoculum controls from the median of a minimum of triplicates.
The plates were incubated at 37 °C and checked for growth after 24 and 48 h. […] Nine colonies with an increased MIC were selected for further analysis and stored as glycerol stocks.

E. coli W3110 [3] = test: H-89 derivatives rescreen, 50 µM; type: cell-based; conditions: Escherichia coli, H-89 derivative rescreen, highest 50 µM
Description: From glycerol stocks, E. coli W3110 was cultured on blood agar plates (PB5039A, Thermo Scientific) by overnight (18 ± 2 h) aerobic incubation at 37 °C. A single colony was transferred to tryptic soy broth (TSB, 02-200-500, Scharlab). The cultures were grown to exponential phase (OD600 of 0.5) at 37 °C. The bacterial suspensions were diluted 200-fold in cation-adjusted Mueller–Hinton broth (CAMHB) and 99 µl was added to a library of test compounds (1 µl 10 mM DMSO stock, per well in technical duplicates) in polypropylene 96-well microtitre plates to reach a volume of 100 µl and a final concentration of 100 µM for each test compound and a maximum of 1% DMSO. […] Screening hits were selected from the wells where no visible bacterial growth was observed, as compared with the inoculum controls containing 1% DMSO. The follow-up screen of H-89 derivatives was performed under similar conditions with a final concentration of 50 µM.

E. coli W3110 [4] = test: Time-kill assay
Description: From glycerol stocks, bacterial strains were cultured on blood agar plates by overnight incubation at 37 °C. Subsequently, a single colony was cultured in TSB overnight at 37 °C. The culture was diluted 100-fold in fresh CAMHB and grown until early exponential phase (OD600 of 0.25) followed by 100-fold dilution in media. The culture was split in separate culture tubes containing 2 ml. […] The supernatant was discarded and pellets were washed once with filter-sterilized PBS, then resuspended in an equal volume of fresh buffer and samples were tenfold serially diluted until a 10^5 dilution. Then, 10 µl of the appropriate dilutions were inoculated on LB agar plates in technical duplicates, subsequently allowed to evaporate and incubated at 37 °C for 18 h. The colonies were counted and used to calculate the colony forming unit (c.f.u.) per ml remaining in the original culture by taking the dilution factors into account. The experiment was performed in biological duplicates.

[5] = Escherichia coli, W3110, read-out: MIC E. coli W3110
[6] = Escherichia coli, E. coli W3110 60-r1
[7] = Escherichia coli, E. coli W3110 60-r3
[8] = Escherichia coli, E. coli W3110 60-r6
[9] = WT, broth microdilution, read-out: MIC E. coli W3110

## C[C@@H](O)[C@H]1C(=O)N2C(C(=O)O)=C(SCCN=CN)C[C@H]12 [Imipenem]
E. coli W3110 [1]; Escherichia coli, W3110
  MIC: 0.1 µg/mL
E. coli W3110 [1]; [5]
  MIC: 0.375 µM
[2]; [6]
  MIC: 0.75 µM and 0.2 µg/mL
[2]; [7]
  MIC: 0.375 µM and 0.1 µg/mL
[2]; [8]
  MIC: 0.375 µM and 0.1 µg/mL

## C[C@@H](O)[C@H]1C(=O)N2C(C(=O)O)=C(S[C@@H]3CN[C@H](C(=O)N(C)C)C3)[C@H](C)[C@H]12 [Meropenem]
E. coli W3110 [1]; Escherichia coli, W3110
  MIC: 0.02 µg/mL
E. coli W3110 [1]; [5]
  MIC: 0.05 µM
[2]; [6]
  MIC: 0.09 µM and 0.04 µg/mL
[2]; [7]
  MIC: 0.05 µM and 0.02 µg/mL
[2]; [8]
  MIC: 0.05 µM and 0.02 µg/mL

## O=C(CCc1ccc(-c2cnc3[nH]ccc3c2)cc1)NCCNS(=O)(=O)c1ccccc1 [Compound 12]
E. coli W3110 [3]
  MIC: > 50 µM

## Nc1nccc2c(S(=O)(=O)NCCNC/C=C/c3ccc(-c4cccnc4)cc3)cccc12 [Compound 34]
E. coli W3110 [3]
  MIC: > 50 µM

## CS(=O)(=O)NCCNC/C=C/c1ccc(-c2cccnc2)cc1 [Compound 36]
E. coli W3110 [3]
  MIC: > 50 µM

## O=S(=O)(NCCNCCCCc1ccc(-c2cccnc2)cc1)c1cccc2cnccc12 [Compound 39]
E. coli W3110 [3]
  MIC: > 50 µM

## CC(C)(C)c1cc(C(=O)NCC#Cc2ccc(N)nc2)no1 [Compound 30]
E. coli W3110 [3]
  MIC: > 50 µM

## O=S(=O)(NCCNC/C=C/c1ccc(-c2ccccc2)cc1)c1cccc2cnccc12 [Compound 2]
E. coli W3110 [3]
  MIC: > 50 µM

## O=S(=O)(NCCNCCCc1ccc(-c2cnc3[nH]ccc3c2)cc1)c1ccc(Cl)cc1 [Compound 17]
E. coli W3110 [3]
  MIC: > 50 µM

## CN(CCNC/C=C/c1ccc(-c2cccnc2)cc1)S(=O)(=O)c1cccc2cnccc12 [Compound 8]
E. coli W3110 [3]
  MIC: > 50 µM

## O=S(=O)(NCCNCc1ccc2cc(-c3cccnc3)ccc2c1)c1cccc2cnccc12 [Compound 5]
E. coli W3110 [3]
  MIC: > 50 µM

## O=S(=O)(NCCCCCCc1ccc(-c2cccnc2)cc1)c1cccc2cnccc12 [Compound 11]
E. coli W3110 [3]
  MIC: > 50 µM

## O=S(=O)(NCCNCCCc1ccc(-c2cnc3[nH]ccc3c2)cc1)c1cccc2cnccc12 [Compound 45]
E. coli W3110 [3]
  MIC: > 50 µM

## O=C(N[C@H](CO)[C@H](O)c1ccc([N+](=O)[O-])cc1)C(Cl)Cl [Chloramphenicol]
E. coli W3110 [1]; Escherichia coli, W3110
  MIC: 4 µg/mL
E. coli W3110 [1]; [5]
  MIC: 12.4 µM
[2]; [6]
  MIC: 12.4 µM and 4 µg/mL
[2]; [7]
  MIC: 12.4 µM and 4 µg/mL
[2]; [8]
  MIC: 12.4 µM and 4 µg/mL

## O=S(=O)(NCCNC/C=C/c1ccc(-c2cccnc2)cc1)c1cccc2cnccc12 [Compound 35]
E. coli W3110 [3]
  MIC: > 50 µM

## O=C(NCCNC/C=C/c1ccc(-c2cccnc2)cc1)c1cccc2cnccc12 [Compound 37]
E. coli W3110 [3]
  MIC: > 50 µM

## CC(C)(C)c1cc(NC(=O)CCC#Cc2cccnc2)no1 [Compound 27]
E. coli W3110 [3]
  MIC: > 50 µM

## CC(C)(C)c1cc(C(=O)NCC#Cc2cnc3[nH]ccc3c2)no1 [Compound 31]
E. coli W3110 [3]
  MIC: > 50 µM

## CC(C)(O/N=C(\C(=O)N[C@@H]1C(=O)N2C(C(=O)[O-])=C(C[n+]3ccccc3)CS[C@H]12)c1csc(N)n1)C(=O)O [Ceftazidime]
E. coli W3110 [1]; Escherichia coli, W3110
  MIC: 0.4 µg/mL
E. coli W3110 [1]; [5]
  MIC: 0.75 µM
[2]; [6]
  MIC: 0.375 µM and 0.2 µg/mL
[2]; [7]
  MIC: 0.75 µM and 0.4 µg/mL
[2]; [8]
  MIC: 0.75 µM and 0.4 µg/mL

## O=S(=O)(NCCNC/C=C/c1ccccc1-c1ccc2c(c1)OCO2)c1cccc2cnccc12 [Compound 46]
E. coli W3110 [3]
  MIC: > 50 µM

## Neomycin
E. coli W3110 [1]; E. coli W3110
  MIC: 1 µg/mL
E. coli W3110 [1]; [9]
  MIC: 1.5 µM
[2]; E. coli W3110 60-r1
  MIC: 0.75 µM and 0.5 µg/mL
[2]; E. coli W3110 60-r3
  MIC: 1.5 µM and 1 µg/mL
[2]; E. coli W3110 60-r6
  MIC: 0.75 µM and 0.5 µg/mL

## Colistin
E. coli W3110 [1]; E. coli W3110
  MIC: 0.5 µg/mL
E. coli W3110 [1]; [9]
  MIC: 0.19 µM
[2]; E. coli W3110 60-r1
  MIC: 0.375 µM and 1 µg/mL
[2]; E. coli W3110 60-r3
  MIC: 0.375 µM and 1 µg/mL
[2]; E. coli W3110 60-r6
  MIC: 0.19 µM and 0.5 µg/mL

## CC(C)(C)c1cc(NC(=O)CCC#Cc2cnc3[nH]ccc3c2)no1 [Compound 28]
E. coli W3110 [3]
  MIC: > 50 µM

## O=C(CCc1ccc(-c2cnc3[nH]ccc3c2)cc1)NCCNS(=O)(=O)c1ccc(Cl)c(Cl)c1 [Compound 14]
E. coli W3110 [3]
  MIC: > 50 µM

## O=[N+]([O-])c1ccccc1S(=O)(=O)NCCNC/C=C/c1ccc(-c2cccnc2)cc1 [Compound 7]
E. coli W3110 [3]
  MIC: > 50 µM

## Cc1ccc(S(=O)(=O)NCCNC(=O)CCc2ccc(-c3cnc4[nH]ccc4c3)cc2)cc1 [Compound 15]
E. coli W3110 [3]
  MIC: > 50 µM

## O=S(=O)(NCCNCCCc1ccc(-c2cnc3[nH]ccc3c2)cc1)c1ccc(Cl)c(Cl)c1 [Compound 22]
E. coli W3110 [3]
  MIC: > 50 µM

## O=C(/C=C/c1ccc(-c2cccnc2)cc1)NCCNS(=O)(=O)c1cccc2cnccc12 [Compound 38]
E. coli W3110 [3]
  MIC: > 50 µM

## O=S(=O)(NCCNC/C=C/c1ccc(-c2cccnc2)cc1)c1cccc2ccccc12 [Compound 6]
E. coli W3110 [3]
  MIC: > 50 µM

## CN(CCNCCCc1ccc(-c2cccnc2)cc1)S(=O)(=O)c1cccc2cnccc12 [Compound 10]
E. coli W3110 [3]
  MIC: > 50 µM

## Cc1ccc(S(=O)(=O)NCCNCCCc2ccc(-c3cnc4[nH]ccc4c3)cc2)cc1 [Compound 18]
E. coli W3110 [3]
  MIC: > 50 µM

## CNC(=O)c1ccc(-c2ccc(CCC(=O)NCCNS(=O)(=O)c3cccc4cnccc34)cc2)cn1 [Compound 42]
E. coli W3110 [3]
  MIC: > 50 µM

## COc1cc(Cc2cnc(N)nc2N)cc(OC)c1OC [TMP, trimethoprim]
E. coli W3110 [1]; Escherichia coli, W3110
  MIC: 0.16 µg/mL
E. coli W3110 [1]; [5]
  MIC: 0.375 µM
[2]; [6]
  MIC: 0.375 µM and 0.16 µg/mL
[2]; [7]
  MIC: 0.18 µM and 0.08 µg/mL
[2]; [8]
  MIC: 0.375 µM and 0.16 µg/mL
E. coli W3110 [4]; 4xMIC, 0.5 h, n = 1 and n = 2
  time kill kinetics, bacterial count: 5.161 and 5.204
E. coli W3110 [4]; 4xMIC, 1 h
  time kill kinetics, bacterial count: 5.041 and 5.342
E. coli W3110 [4]; 4xMIC, 2 h
  time kill kinetics, bacterial count: 5.322 and 4.954
E. coli W3110 [4]; 4xMIC, 4 h
  time kill kinetics, bacterial count: 4.255 and 4.204
E. coli W3110 [4]; 4xMIC, 8 h
  time kill kinetics, bacterial count: 2.845 and 2.602
E. coli W3110 [4]; 4xMIC, 24 h
  time kill kinetics, bacterial count: 2
E. coli W3110 [4]; 8xMIC, 0.5 h
  time kill kinetics, bacterial count: 6.217 and 6.23
E. coli W3110 [4]; 8xMIC, 1 h
  time kill kinetics, bacterial count: 4.978 and 5.097
E. coli W3110 [4]; 8xMIC, 2 h
  time kill kinetics, bacterial count: 5.176 and 4.929
E. coli W3110 [4]; 8xMIC, 4 h
  time kill kinetics, bacterial count: 3.544 and 3.423
E. coli W3110 [4]; 8xMIC, 8 h
  time kill kinetics, bacterial count: 2.699
E. coli W3110 [4]; 8xMIC, 24 h
  time kill kinetics, bacterial count: 2.301 and 2

## COc1ccc(S(=O)(=O)NCCNCCCc2ccc(-c3cnc4[nH]ccc4c3)cc2)cc1 [Compound 20]
E. coli W3110 [3]
  MIC: > 50 µM

## COc1ccc(S(=O)(=O)NCCNC(=O)CCc2ccc(-c3cnc4[nH]ccc4c3)cc2)cc1 [Compound 16]
E. coli W3110 [3]
  MIC: > 50 µM
